In assay [1] the target is T1, hNav1.4 (Homo sapiens, UniProt P35499). Kind of assay: cell-based. The note with it: ratio of IonWorks Quattro IC50 values. On the technique in general: The patch-clamp technique gives a direct electrical read-out from membranes.
Assay [2] deals with T1, hNav1.4. Kind of assay: cell-based. Conditions: ratio of PX IC50 values.

Values joined by “and” are separate entries in the source; they are usually repeats but may differ in a detail not shown here. Identical values can stand only once.

T1 sequence (P35499 whole entry): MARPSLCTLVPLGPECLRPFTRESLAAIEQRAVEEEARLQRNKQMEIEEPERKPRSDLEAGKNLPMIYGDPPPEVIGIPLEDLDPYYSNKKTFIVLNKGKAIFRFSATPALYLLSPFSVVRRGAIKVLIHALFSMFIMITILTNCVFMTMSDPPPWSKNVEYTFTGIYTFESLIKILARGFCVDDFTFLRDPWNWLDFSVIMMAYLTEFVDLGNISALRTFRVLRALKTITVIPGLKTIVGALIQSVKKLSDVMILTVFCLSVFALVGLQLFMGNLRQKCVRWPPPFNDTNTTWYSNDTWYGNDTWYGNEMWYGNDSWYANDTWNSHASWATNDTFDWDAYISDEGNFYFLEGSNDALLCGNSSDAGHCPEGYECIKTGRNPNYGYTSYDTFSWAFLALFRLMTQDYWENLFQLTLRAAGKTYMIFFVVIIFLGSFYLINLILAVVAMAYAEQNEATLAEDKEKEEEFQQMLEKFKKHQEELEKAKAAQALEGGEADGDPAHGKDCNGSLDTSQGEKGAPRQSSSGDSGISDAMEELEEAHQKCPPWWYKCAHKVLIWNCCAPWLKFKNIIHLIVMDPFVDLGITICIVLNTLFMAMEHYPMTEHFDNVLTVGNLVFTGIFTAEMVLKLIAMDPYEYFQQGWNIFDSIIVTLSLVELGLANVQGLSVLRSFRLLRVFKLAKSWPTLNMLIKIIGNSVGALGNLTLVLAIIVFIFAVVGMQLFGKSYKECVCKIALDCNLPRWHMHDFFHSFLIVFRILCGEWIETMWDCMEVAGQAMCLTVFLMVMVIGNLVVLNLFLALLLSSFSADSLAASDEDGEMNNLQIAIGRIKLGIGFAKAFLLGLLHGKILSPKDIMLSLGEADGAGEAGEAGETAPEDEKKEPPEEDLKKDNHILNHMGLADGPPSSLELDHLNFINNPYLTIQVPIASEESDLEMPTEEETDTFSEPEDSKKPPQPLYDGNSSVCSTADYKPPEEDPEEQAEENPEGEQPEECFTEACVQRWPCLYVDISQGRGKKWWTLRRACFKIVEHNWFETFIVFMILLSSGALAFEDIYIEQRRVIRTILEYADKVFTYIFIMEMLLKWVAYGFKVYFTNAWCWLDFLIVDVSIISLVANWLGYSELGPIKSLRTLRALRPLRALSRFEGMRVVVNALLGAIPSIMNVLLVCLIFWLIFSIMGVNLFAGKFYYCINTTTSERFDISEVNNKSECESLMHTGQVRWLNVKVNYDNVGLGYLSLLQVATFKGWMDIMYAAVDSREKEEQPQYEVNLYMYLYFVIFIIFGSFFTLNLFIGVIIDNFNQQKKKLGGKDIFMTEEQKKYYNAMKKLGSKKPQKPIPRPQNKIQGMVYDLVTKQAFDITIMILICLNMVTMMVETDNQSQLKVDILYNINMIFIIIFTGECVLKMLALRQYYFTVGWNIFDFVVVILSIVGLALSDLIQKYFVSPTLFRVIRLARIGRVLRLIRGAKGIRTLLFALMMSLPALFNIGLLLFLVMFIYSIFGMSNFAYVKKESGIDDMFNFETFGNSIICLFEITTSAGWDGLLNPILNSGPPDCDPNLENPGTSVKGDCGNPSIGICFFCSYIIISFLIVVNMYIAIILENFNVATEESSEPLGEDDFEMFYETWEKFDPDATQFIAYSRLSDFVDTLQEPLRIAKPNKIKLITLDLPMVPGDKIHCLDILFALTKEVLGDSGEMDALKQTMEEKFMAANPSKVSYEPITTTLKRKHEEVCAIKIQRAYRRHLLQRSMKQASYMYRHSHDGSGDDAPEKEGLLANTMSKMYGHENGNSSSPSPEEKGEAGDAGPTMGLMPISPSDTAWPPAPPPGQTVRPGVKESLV

Turning to `CC[C@@H]1NC(=O)[C@H](CC(C)C)NC(=O)CNC(=O)[C@H](CCC(=O)O)NC(=O)[C@@H]2CSSC[C@H](NC(=O)[C@@H](N)Cc3ccc(O)cc3)C(=O)N[C@@H](CCC(N)=O)C(=O)N[C@@H](CCCCN)C(=O)N[C@@H](Cc3c[nH]c4ccccc34)C(=O)N[C@@H](CCSC)C(=O)N[C@@H](Cc3c[nH]c4ccccc34)C(=O)N[C@@H]([C@@H](C)O)C(=O)N[C@H]3CSSC[C@H](NC1=O)C(=O)N[C@@H](CCCCN)C(=O)N[C@@H](CC(C)C)C(=O)N[C@@H](Cc1c[nH]c4ccccc14)C(=O)N[C@H](C(=O)N[C@@H](CCCNC(=N)N)C(=O)N[C@@H](CCCCN)C(=O)N[C@H](C(=O)N[C@H](C(N)=O)[C@@H](C)CC)[C@@H](C)CC)CSSC[C@H](NC(=O)[C@H](C)NC(=O)[C@H](CCCNC(=N)N)NC(=O)[C@H](CCCCN)NC(=O)[C@H](CO)NC(=O)[C@H](CC(=O)O)NC3=O)C(=O)N2` [compound 117], the Nav1.4/Nav1.7 in assay [1] stood at 19.
Same read-out and setting: with `CC[C@H](NC(=O)[C@H](CCCCN)NC(=O)[C@H](CCCNC(=N)N)NC(=O)[C@@H]1CSSC[C@@H]2NC(=O)[C@H](C)NC(=O)[C@H](CCCNC(=N)N)NC(=O)[C@H](CCCCN)NC(=O)[C@H](CO)NC(=O)[C@H](CC(=O)O)NC(=O)[C@@H]3CSSC[C@H](NC(=O)[C@H](CCC(=O)O)NC(=O)[C@H](CC(C)C)NC(=O)CNC(=O)[C@H](CCC(=O)O)NC(=O)[C@H](CSSC[C@H](NC(=O)[C@@H](N)Cc4ccc(O)cc4)C(=O)N[C@@H](CCC(N)=O)C(=O)N[C@@H](CCCCN)C(=O)N[C@@H](Cc4c[nH]c5ccccc45)C(=O)N[C@@H](CCSC)C(=O)N[C@@H](Cc4c[nH]c5ccccc45)C(=O)N[C@@H]([C@@H](C)O)C(=O)N3)NC2=O)C(=O)N[C@@H](CCCCN)C(=O)N[C@@H](CC(C)C)C(=O)N[C@@H](Cc2c[nH]c3ccccc23)C(=O)N1)C(=O)N[C@H](C(N)=O)[C@@H](C)CC` [compound 130] the figure was 29 and 24.
On to `CCCC[C@@H]1NC(=O)[C@H](Cc2c[nH]c3ccccc23)NC(=O)[C@H](CCCCN)NC(=O)[C@H](CCC(N)=O)NC(=O)[C@@H](NC(=O)[C@H](Cc2ccc(O)cc2)NC(=O)[C@@H](N)Cc2cn(CCCOCCOCCOCCOCCOCCOCCOCCOCCOCCOCCN)nn2)CSSC[C@@H]2NC(=O)[C@@H]3CSSC[C@@H](C(=O)N[C@@H](CCCNC(=N)N)C(=O)N[C@@H](CCCCN)C(=O)N[C@H](C(=O)N[C@H](C(N)=O)[C@@H](C)CC)[C@@H](C)CC)NC(=O)[C@H](Cc4c[nH]c5ccccc45)NC(=O)[C@H](CC(C)C)NC(=O)[C@H](CCCCN)NC(=O)[C@H](CSSC[C@H](NC(=O)[C@H]([C@@H](C)O)NC(=O)[C@H](Cc4c[nH]c5ccccc45)NC1=O)C(=O)N[C@@H](CC(=O)O)C(=O)N[C@@H](CO)C(=O)N[C@@H](CCCCN)C(=O)N[C@@H](CCCNC(=N)N)C(=O)N[C@@H](C)C(=O)N3)NC(=O)[C@H](CCCNC(=N)N)NC(=O)[C@H](CC(C)C)NC(=O)CNC(=O)[C@H](CCC(=O)O)NC2=O` [compound 247], for which the Nav1.4/Nav1.7 in assay [2] came to 1; in assay [1], 2.
On to `CCCC[C@@H]1NC(=O)[C@H](Cc2c[nH]c3ccccc23)NC(=O)[C@H](CCCCN)NC(=O)[C@H](CCC(N)=O)NC(=O)[C@@H](NC(=O)[C@@H](N)Cc2ccc(O)cc2)CSSC[C@@H]2NC(=O)[C@@H]3CSSC[C@@H](C(=O)N[C@@H](CCCNC(=N)N)C(=O)N[C@@H](CCCCN)C(=O)N[C@H](C(=O)N[C@@H](Cc4cn(CCCOCCOCCOCCOCCOCCOCCOCCOCCOCCOCCN)nn4)C(N)=O)[C@@H](C)CC)NC(=O)[C@H](Cc4c[nH]c5ccccc45)NC(=O)[C@H](CC(C)C)NC(=O)[C@H](CCCCN)NC(=O)[C@H](CSSC[C@H](NC(=O)[C@H]([C@@H](C)O)NC(=O)[C@H](Cc4c[nH]c5ccccc45)NC1=O)C(=O)N[C@@H](CC(=O)O)C(=O)N[C@@H](CO)C(=O)N[C@@H](CCCCN)C(=O)N[C@@H](CCCNC(=N)N)C(=O)N[C@@H](C)C(=O)N3)NC(=O)[C@H](CCCNC(=N)N)NC(=O)[C@H](CC(C)C)NC(=O)CNC(=O)[C@H](CCC(=O)O)NC2=O` [compound 270], for which the Nav1.4/Nav1.7 in assay [1] was found to be 2.

(Values after US9636418B2 (priority 2013, dated 2017).)
